Source: ChEMBL document CHEMBL4507257, “Data for DCP probe ABT-100” (2021)

Legend:
Aurora kinase B = Aurora kinase B (Homo sapiens, UniProt Q96GD4); assay: Inhibition of AURKB at compound concentration of 10.0 uM using the ScanMax (DiscoverX)
[1] = target: Serine/threonine-protein kinase BRSK2 (Homo sapiens, UniProt Q8IWQ3); assay: Inhibition of BRSK2 at compound concentration of 10.0 uM using the ScanMax (DiscoverX)
Ephrin type-A receptor 1 = Ephrin type-A receptor 1 (Homo sapiens, UniProt P21709); assay: Inhibition of EPHA1 at compound concentration of 10.0 uM using the ScanMax (DiscoverX)
[2] = target: G protein-coupled receptor kinase 3 (Homo sapiens, UniProt P35626); assay: Inhibition of GRK3 at compound concentration of 10.0 uM using the ScanMax (DiscoverX)
[3] = target: Homeodomain-interacting protein kinase 2 (Homo sapiens, UniProt Q9H2X6); assay: Inhibition of HIPK2 at compound concentration of 10.0 uM using the ScanMax (DiscoverX)
[4] = target: Adenosine receptor A2a (Homo sapiens) (UniProt P29274); assay: A2a (h) Ligand binding assay; conditions: Compound concentration 10.0 uM
[5] = target: Adrenergic receptor alpha-1 (Homo sapiens) (UniProt P35348+P25100+P35368); assay: alpha1 (non-selective) Ligand binding assay; type: protein assay; conditions: Compound concentration 10.0 uM
[6] = target: Adrenergic receptor alpha-2 (Homo sapiens) (UniProt P08913+P18825+P18089); assay: alpha2 (non-selective) Ligand binding assay; type: protein assay; conditions: Compound concentration 10.0 uM
[7] = target: Beta-2 adrenergic receptor (Homo sapiens) (UniProt P07550); assay: beta2 (h) Ligand binding assay; conditions: Compound concentration 10.0 uM
[8] = target: Type-1 angiotensin II receptor (Homo sapiens) (UniProt P30556); assay: AT1 (h) Ligand binding assay; conditions: Compound concentration 10.0 uM
[9] = target: B2 bradykinin receptor (Homo sapiens) (UniProt P30411); assay: B2 (h) Ligand binding assay; conditions: Compound concentration 10.0 uM
[10] = target: D(1A) dopamine receptor (Homo sapiens) (UniProt P21728); assay: D1 (h) Ligand binding assay; conditions: Compound concentration 10.0 uM
[11] = target: D(2) dopamine receptor (Homo sapiens) (UniProt P14416); assay: D2 (h) Ligand binding assay; conditions: Compound concentration 10.0 uM
[12] = target: Endothelin-1 receptor (Homo sapiens) (UniProt P25101); assay: ETA (h) Ligand binding assay; conditions: Compound concentration 10.0 uM
[13] = target: Histamine H2 receptor (Homo sapiens) (UniProt P25021); assay: H2 Ligand binding assay; conditions: Compound concentration 10.0 uM
[14] = target: T1, Muscarinic acetylcholine receptor M4 (Homo sapiens) (UniProt P08173); assay: M4 (h) Ligand binding assay; conditions: Compound concentration 10.0 uM
T1 sequence (whole entry): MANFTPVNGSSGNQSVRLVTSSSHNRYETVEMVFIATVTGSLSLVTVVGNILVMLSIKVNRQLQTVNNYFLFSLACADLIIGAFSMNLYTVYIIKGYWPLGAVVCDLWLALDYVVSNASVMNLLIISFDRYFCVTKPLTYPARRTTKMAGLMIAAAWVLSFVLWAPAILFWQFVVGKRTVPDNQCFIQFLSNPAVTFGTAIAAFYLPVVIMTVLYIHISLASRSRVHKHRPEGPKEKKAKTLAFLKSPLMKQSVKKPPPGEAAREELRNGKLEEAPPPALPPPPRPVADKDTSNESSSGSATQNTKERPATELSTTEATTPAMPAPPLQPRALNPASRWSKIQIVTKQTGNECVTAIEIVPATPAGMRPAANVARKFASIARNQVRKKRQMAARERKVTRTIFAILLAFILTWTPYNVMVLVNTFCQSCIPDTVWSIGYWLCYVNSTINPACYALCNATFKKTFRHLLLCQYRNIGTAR

[15] = target: T2, Muscarinic acetylcholine receptor M5 (Homo sapiens) (UniProt P08912); assay: M5 (h) Ligand binding assay; conditions: Compound concentration 10.0 uM
T2 sequence (whole entry): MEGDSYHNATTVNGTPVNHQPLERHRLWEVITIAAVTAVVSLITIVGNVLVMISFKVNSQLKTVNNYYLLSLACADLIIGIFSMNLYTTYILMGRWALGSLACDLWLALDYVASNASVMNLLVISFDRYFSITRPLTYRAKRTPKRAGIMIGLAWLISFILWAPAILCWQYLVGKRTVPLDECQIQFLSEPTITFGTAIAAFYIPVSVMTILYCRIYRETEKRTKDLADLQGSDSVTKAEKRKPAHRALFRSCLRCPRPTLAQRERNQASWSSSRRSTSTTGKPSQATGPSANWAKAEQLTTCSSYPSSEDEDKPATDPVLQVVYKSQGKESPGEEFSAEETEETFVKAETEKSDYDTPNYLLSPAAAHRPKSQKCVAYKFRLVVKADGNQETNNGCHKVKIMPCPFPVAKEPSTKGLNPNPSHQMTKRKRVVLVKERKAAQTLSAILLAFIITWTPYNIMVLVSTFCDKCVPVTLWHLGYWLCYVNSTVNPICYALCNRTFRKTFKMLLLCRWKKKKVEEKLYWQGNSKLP

[16] = target: Substance-P receptor (Homo sapiens) (UniProt P25103); assay: NK1 (h) Ligand binding assay
[17] = target: Nociceptin receptor (Homo sapiens) (UniProt P41146); assay: ORL-1 (h) Ligand binding assay; conditions: Compound concentration 10.0 uM
[18] = target: Pituitary adenylate cyclase-activating polypeptide type I receptor (Homo sapiens) (UniProt P41586); assay: PACAP[…] (h) Ligand binding assay; conditions: Compound concentration 10.0 uM
[19] = target: Thromboxane A2 receptor (Homo sapiens) (UniProt P21731); assay: TXA2/PGH2 (h) Ligand binding assay; conditions: Compound concentration 10.0 uM
[20] = target: T3, 5-hydroxytryptamine receptor 3A (Homo sapiens) (UniProt P46098); assay: 5-HT3 (h) Ligand binding assay; conditions: Compound concentration 10.0 uM
T3 sequence (whole entry): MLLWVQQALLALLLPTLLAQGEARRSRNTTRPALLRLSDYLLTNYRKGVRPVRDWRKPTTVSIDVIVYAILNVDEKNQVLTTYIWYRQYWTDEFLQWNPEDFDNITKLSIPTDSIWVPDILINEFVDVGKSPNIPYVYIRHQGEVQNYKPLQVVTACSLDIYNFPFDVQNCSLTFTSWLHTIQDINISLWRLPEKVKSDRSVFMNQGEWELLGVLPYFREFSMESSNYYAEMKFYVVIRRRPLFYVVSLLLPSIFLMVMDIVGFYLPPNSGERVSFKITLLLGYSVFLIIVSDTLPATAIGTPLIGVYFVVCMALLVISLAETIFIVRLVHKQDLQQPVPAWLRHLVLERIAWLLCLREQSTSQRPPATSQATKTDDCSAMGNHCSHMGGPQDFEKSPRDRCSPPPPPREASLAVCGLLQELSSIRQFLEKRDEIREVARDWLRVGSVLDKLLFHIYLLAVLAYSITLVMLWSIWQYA

[21] = target: 5-hydroxytryptamine receptor 7 (Homo sapiens) (UniProt P34969); assay: 5-HT7 (h) Ligand binding assay; conditions: Compound concentration 10.0 uM
[22] = target: Vasoactive intestinal polypeptide receptor 1 (Homo sapiens) (UniProt P32241); assay: VIP1 (h) Ligand binding assay
[23] = Cl- ionophore Ligand binding assay
[24] = target: Alpha-1D adrenergic receptor (Homo sapiens) (UniProt P25100); conditions: Compound concentration 10.0 uM

Vasoactive intestinal polypeptide receptor 1 (Homo sapiens), sequence (P32241 whole entry): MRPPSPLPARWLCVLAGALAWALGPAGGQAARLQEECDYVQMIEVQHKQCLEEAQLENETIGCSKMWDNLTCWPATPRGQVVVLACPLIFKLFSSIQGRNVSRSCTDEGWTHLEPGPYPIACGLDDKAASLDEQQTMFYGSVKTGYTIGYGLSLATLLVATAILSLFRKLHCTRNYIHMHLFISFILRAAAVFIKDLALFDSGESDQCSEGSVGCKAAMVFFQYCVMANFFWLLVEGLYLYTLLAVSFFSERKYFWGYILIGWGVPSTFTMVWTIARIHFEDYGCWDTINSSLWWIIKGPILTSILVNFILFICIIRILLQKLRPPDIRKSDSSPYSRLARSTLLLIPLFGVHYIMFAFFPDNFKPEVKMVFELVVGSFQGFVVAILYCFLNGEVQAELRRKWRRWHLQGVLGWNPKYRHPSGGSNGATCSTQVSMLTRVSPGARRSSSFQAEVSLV
Substance-P receptor (Homo sapiens), sequence (P25103 whole entry): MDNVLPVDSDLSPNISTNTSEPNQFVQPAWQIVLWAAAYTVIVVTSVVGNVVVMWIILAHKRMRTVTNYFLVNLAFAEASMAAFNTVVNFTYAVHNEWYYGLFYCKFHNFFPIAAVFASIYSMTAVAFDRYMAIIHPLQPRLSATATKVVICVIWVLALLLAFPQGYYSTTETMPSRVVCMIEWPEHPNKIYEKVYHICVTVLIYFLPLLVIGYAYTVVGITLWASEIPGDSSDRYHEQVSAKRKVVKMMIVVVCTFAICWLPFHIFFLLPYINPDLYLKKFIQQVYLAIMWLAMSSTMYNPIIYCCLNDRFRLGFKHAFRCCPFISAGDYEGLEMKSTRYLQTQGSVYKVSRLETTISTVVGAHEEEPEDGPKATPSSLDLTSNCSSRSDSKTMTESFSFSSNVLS
Ephrin type-A receptor 1, sequence (P21709 whole entry): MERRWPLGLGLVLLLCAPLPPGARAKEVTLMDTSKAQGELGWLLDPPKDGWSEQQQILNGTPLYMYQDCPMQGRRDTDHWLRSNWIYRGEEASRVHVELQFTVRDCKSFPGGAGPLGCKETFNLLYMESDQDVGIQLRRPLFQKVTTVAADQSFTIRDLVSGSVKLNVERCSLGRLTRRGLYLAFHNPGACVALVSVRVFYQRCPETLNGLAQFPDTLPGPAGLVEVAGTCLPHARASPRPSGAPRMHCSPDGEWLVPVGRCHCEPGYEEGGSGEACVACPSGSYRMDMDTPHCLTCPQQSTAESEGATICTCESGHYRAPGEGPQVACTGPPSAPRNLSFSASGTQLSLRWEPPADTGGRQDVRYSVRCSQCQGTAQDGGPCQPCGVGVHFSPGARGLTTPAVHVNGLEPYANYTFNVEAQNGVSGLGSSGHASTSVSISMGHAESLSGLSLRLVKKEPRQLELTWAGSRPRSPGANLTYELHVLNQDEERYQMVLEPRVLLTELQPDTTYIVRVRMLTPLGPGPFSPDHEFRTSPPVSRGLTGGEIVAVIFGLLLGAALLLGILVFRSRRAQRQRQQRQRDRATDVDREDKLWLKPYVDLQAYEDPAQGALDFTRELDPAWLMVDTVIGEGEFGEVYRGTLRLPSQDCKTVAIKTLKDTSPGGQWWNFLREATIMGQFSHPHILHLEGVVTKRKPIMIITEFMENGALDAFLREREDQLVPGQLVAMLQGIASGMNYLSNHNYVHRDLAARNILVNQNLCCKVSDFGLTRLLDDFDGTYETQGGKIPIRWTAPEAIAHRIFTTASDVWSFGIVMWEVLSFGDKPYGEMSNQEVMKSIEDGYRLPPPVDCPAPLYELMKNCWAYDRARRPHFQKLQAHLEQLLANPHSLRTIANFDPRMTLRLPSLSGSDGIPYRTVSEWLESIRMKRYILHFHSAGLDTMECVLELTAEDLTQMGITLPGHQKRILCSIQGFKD
Pituitary adenylate cyclase-activating polypeptide type I receptor (Homo sapiens), sequence (P41586 21-468 limits assumed): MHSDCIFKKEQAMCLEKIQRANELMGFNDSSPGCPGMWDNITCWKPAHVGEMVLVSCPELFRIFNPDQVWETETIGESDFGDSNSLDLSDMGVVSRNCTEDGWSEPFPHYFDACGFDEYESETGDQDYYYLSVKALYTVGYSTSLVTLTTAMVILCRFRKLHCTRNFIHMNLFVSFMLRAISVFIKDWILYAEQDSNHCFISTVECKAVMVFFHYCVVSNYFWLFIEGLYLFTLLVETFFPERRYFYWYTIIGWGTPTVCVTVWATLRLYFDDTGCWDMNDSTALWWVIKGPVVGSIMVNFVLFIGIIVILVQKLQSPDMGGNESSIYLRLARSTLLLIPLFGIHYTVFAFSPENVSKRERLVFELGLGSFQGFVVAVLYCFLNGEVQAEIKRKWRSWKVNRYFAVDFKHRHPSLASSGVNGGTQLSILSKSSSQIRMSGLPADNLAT
Histamine H2 receptor (Homo sapiens), sequence (P25021 whole entry): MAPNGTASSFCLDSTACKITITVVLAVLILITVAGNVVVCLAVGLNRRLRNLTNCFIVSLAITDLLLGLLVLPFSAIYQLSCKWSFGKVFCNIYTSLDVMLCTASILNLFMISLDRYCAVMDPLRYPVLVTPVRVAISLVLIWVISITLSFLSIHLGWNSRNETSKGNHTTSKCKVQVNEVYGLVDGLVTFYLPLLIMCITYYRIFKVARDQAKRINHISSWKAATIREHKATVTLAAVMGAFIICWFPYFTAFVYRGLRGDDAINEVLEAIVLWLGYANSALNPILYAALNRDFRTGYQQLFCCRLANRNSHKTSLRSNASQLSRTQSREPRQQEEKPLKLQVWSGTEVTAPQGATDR
Aurora kinase B, sequence (Q96GD4 whole entry): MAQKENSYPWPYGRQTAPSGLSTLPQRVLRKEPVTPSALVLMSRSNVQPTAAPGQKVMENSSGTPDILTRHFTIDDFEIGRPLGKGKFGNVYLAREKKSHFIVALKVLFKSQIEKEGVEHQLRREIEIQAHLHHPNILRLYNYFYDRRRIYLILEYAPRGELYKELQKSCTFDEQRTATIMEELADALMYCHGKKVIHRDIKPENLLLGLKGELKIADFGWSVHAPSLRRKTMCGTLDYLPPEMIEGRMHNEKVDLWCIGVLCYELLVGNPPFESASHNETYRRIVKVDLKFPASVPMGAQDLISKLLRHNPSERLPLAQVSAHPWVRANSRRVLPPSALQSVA
D(1A) dopamine receptor (Homo sapiens), sequence (P21728 whole entry): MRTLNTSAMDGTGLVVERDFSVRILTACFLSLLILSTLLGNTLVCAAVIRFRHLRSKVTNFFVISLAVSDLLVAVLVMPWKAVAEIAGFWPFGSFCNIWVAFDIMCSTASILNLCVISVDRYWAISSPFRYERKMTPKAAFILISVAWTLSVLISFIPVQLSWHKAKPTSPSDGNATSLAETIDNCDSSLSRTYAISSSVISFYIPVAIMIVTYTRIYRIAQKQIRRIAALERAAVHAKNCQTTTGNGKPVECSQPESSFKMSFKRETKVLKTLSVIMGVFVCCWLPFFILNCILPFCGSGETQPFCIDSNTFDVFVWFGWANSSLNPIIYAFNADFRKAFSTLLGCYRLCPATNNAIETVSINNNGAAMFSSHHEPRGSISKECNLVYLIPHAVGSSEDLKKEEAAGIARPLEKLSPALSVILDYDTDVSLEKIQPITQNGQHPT
B2 bradykinin receptor (Homo sapiens), sequence (P30411 whole entry): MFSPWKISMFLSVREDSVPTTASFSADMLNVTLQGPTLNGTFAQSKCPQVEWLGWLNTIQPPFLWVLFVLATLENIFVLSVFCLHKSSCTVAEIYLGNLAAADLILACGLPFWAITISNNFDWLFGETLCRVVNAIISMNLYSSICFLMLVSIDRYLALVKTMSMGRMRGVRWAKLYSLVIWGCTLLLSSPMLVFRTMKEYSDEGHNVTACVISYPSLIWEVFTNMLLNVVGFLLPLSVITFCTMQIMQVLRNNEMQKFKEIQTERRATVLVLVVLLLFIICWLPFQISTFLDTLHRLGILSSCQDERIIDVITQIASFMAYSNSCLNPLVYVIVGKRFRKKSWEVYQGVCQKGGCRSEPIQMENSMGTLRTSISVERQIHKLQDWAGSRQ
Serine/threonine-protein kinase BRSK2, sequence (Q8IWQ3 whole entry): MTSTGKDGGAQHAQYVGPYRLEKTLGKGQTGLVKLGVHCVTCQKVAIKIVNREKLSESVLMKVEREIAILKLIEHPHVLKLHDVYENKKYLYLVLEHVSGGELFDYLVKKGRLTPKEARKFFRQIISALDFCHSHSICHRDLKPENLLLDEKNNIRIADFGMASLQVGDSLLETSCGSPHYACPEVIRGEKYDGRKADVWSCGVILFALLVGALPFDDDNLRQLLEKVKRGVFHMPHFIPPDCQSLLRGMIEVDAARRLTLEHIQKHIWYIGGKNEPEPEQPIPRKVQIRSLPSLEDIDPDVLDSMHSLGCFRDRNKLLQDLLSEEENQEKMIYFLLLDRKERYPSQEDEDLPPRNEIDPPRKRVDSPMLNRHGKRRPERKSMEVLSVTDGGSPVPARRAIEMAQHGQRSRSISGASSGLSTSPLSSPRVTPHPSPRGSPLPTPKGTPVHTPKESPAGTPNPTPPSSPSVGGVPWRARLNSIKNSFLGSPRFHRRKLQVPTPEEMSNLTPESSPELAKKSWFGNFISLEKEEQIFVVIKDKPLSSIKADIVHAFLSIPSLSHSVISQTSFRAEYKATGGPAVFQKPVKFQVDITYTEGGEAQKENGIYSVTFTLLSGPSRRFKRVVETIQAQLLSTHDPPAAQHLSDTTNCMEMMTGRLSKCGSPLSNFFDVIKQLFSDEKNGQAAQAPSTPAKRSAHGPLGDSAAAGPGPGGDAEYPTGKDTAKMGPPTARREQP
Beta-2 adrenergic receptor (Homo sapiens), sequence (P07550 whole entry, looked up): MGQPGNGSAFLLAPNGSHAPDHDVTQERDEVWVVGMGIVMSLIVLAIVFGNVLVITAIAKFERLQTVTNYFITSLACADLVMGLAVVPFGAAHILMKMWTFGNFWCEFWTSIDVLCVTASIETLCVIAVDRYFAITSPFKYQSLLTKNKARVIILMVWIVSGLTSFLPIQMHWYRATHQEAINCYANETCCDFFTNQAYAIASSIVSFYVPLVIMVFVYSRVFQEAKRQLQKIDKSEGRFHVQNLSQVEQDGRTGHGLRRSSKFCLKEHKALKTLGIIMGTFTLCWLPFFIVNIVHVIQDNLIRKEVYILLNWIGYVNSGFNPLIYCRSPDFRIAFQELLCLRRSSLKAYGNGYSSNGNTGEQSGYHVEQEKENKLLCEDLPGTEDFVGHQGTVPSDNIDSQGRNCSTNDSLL

Q: With `Cn1cncc1[C@](O)(COc1ccc(C#N)cc1-c1ccc(OC(F)(F)F)cc1)c1ccc(C#N)cc1` [ABT-100] as the compound, how does the Kd (Aurora kinase B) read?
A: > 10 µM (not active)

Q: And the Kd [1]?
A: > 10 µM (not active)

Q: What about the Kd (Ephrin type-A receptor 1) of the same compound?
A: > 10 µM (not active)

Q: And the Kd [2]?
A: > 10 µM (not active)

Q: And the Kd [3]?
A: > 10 µM (not active)

Q: What about the inhibition [4] of the same compound?
A: < 10%

Q: And the inhibition [5]?
A: < 10%

Q: And the inhibition [6]?
A: < 10%

Q: What about the inhibition [7] of the same compound?
A: 10%

Q: And the inhibition [8]?
A: < 10%

Q: And the inhibition [9]?
A: < 10%

Q: And the inhibition [10]?
A: 31%

Q: And the inhibition [11]?
A: 12%

Q: And the inhibition [12]?
A: < 10%

Q: And the inhibition [13]?
A: 53%

Q: And the inhibition [14]?
A: < 10%

Q: And the inhibition [15]?
A: 18%

Q: What about the inhibition ([16]; Compound concentration 3.0 uM) of the same compound?
A: 31%

Q: What about the inhibition ([16]; Compound concentration 10.0 uM) of the same compound?
A: 68%

Q: What about the inhibition [17] of the same compound?
A: < 10%

Q: What about the inhibition [18] of the same compound?
A: < 10%

Q: What about the inhibition [19] of the same compound?
A: 24%

Q: And the inhibition [20]?
A: 12%

Q: And the inhibition [21]?
A: 22%

Q: And the inhibition ([22]; Compound concentration 0.3 uM)?
A: 23%

Q: What about the inhibition ([22]; Compound concentration 10.0 uM) of the same compound?
A: 60%

Q: What about the inhibition ([23]; Compound concentration 3.0 uM) of the same compound?
A: 30%

Q: And the inhibition ([23]; Compound concentration 10.0 uM)?
A: 67%

Q: And the inhibition [24]?
A: -8.65%
